Measured values reported in article PMC3548978 (Analytical and bioanalytical chemistry, 2012).

Tests used:
Format in all cases: biochemical
p300 = p300 (Homo sapiens, UniProt Q09472); assay: radioisotope […]Ac-CoA HAT assay, […] probe, […] activity lost; conditions: read-out: % activity lost at 50 μM
PCAF [1] = target: T1, PCAF (Homo sapiens, UniProt Q92831); assay: radioisotope […]Ac-CoA HAT assay, […] probe
PCAF [2] = target: T1, PCAF; assay: CPM fluorescent HAT assay with H3-20 and Ac-CoA
Tip60 = Tip60 (Homo sapiens, UniProt Q92993); assay: CPM fluorescent HAT assay with H4-20 and Ac-CoA
Sequence of Tip60 (Q92993 whole entry): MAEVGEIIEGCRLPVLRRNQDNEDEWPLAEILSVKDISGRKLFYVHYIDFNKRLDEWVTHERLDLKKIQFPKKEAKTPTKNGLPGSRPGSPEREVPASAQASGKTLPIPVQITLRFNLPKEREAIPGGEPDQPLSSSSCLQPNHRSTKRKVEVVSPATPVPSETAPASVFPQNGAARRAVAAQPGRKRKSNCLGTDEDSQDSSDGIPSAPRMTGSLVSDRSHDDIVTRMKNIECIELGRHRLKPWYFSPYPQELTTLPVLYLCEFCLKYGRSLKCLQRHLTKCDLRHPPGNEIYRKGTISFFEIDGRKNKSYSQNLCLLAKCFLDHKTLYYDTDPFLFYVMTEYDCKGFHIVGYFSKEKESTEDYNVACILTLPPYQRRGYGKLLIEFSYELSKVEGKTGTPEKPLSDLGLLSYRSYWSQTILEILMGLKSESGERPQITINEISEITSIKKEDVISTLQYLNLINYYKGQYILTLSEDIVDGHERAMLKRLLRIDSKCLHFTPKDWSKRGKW

T1 sequence (Q92831 493-658): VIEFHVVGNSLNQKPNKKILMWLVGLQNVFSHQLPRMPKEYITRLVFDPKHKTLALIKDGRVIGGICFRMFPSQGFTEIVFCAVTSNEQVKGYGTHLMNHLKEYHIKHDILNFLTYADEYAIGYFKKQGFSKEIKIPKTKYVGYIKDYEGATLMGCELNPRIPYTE
Sequence of p300 (Q09472 2-2414): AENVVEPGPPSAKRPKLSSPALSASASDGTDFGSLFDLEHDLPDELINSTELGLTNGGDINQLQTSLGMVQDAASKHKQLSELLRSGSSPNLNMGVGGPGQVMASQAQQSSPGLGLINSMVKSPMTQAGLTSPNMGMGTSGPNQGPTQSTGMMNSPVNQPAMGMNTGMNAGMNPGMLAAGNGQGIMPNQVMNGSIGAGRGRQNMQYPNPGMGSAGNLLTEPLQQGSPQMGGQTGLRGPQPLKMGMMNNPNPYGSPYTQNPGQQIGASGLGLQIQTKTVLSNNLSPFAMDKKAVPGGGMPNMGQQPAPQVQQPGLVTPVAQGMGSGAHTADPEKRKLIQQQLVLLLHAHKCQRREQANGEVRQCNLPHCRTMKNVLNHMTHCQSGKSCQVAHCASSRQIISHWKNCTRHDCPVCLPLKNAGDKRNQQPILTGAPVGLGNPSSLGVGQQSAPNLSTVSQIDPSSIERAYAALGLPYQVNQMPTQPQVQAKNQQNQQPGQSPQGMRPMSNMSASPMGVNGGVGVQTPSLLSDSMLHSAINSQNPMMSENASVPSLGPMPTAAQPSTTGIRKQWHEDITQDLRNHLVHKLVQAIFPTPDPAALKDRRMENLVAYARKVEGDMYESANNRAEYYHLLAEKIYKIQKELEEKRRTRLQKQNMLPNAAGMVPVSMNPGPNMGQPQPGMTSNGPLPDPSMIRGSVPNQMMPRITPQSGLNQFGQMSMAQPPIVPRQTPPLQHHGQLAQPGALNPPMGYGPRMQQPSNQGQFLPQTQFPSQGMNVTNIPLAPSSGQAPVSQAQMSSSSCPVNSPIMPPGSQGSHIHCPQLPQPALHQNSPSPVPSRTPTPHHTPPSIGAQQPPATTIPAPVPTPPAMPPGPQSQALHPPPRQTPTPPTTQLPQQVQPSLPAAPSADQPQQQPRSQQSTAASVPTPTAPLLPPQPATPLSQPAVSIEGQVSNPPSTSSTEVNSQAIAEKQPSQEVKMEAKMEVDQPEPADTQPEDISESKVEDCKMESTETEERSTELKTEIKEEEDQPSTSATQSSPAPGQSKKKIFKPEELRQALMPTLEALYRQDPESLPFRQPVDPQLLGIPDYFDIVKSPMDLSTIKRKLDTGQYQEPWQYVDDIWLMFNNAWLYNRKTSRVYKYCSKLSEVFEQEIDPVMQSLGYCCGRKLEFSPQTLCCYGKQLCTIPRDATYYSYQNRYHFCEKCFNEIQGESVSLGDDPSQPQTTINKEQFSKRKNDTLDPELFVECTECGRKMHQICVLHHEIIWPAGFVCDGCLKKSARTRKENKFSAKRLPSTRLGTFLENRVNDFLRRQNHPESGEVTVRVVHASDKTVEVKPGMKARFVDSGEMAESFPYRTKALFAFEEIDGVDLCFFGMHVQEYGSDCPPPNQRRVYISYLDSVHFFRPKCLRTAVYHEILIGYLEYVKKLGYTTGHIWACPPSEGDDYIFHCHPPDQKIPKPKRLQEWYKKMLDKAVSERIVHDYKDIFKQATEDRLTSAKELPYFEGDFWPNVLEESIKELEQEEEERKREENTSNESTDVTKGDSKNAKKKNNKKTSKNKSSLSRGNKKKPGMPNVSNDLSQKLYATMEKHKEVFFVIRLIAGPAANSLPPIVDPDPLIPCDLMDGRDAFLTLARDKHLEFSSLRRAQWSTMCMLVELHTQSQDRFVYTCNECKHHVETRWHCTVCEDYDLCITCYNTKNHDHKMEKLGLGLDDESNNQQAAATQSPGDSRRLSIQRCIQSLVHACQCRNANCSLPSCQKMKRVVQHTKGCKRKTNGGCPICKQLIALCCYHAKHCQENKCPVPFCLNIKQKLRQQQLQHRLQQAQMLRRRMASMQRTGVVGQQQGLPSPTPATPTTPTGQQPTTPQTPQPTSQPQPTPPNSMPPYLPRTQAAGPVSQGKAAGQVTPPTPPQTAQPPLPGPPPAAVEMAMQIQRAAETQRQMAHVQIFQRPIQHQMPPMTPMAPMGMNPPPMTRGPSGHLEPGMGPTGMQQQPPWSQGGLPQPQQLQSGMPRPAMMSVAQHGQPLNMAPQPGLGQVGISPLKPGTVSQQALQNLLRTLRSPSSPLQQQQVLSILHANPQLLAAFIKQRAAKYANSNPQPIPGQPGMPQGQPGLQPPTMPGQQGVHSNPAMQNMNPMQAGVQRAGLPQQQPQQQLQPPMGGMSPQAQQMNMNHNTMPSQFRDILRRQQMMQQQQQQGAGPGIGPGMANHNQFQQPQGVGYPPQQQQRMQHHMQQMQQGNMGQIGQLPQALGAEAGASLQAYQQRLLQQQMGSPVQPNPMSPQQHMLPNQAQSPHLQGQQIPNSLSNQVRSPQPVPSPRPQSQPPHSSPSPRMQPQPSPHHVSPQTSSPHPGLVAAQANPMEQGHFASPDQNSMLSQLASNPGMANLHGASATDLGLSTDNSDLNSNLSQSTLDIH

IC50 (PCAF [2]) [µM]	IC50 (Tip60) [µM]	SMILES	inhibition at 50 µM (p300) [%]	radioisotope [14C]Ac-CoA HAT assay, 50 μM probe (PCAF [1])
		CCN(CC)c1ccc2c(C)c(-c3ccc(N4C(=O)C=CC4=O)cc3)c(=O)oc2c1 [CPM]	> 90	Several compounds (e.g. CPM and P28) also considerably inhibited the activity of PCAF.
96	26	CC(=O)N[C@@H](CCCCNC(=O)CSCCNC(=O)CCNC(=O)[C@H](O)C(C)(C)COP(=O)(O)OP(=O)(O)OC[C@H]1O[C@@H](n2cnc3c(N)ncnc32)[C@H](O)[C@@H]1OP(=O)(O)O)C(N)=O [Lys-CoA]		
		O=C1C=CC(=O)N1c1ccc2ccc3cccc4ccc1c2c34 [P28]	> 90	
